Where no end group is shown, it is not given here.
Legend:
DENV3 = settings: FFA
Procedure: Dengue virus strains 1, 2, 3 and 4 were treated with wither Yodha or control OVA peptide at (A) 50 µM (B) 160 µM concentration and the % of viral focus forming units were determined. (C) IC50 measurement of Yodha in DENVs infection by FFA. […] OVA peptide was used a negative control.
(§1) Peptides were incubated with ZIKV (100 FFU/well) for 2 h at 37 °C. This incubated mixture was used to infect Vero cells for 1.5 h at 37 °C. Cells and inoculum were overlaid with 2% methylcellulose solution (OptiMEM; Gibco) and incubated for 72 h at 37 °C. Cells were washed with PBS and fixed with a 1:1 methanol/acetone mixture for 30 min. Cells were blocked with 5% milk/PSB at room temperature for 20 min and incubated with primary antibody (anti-flavivirus mouse 4G2[10] antibody) for 2 h at 37 °C. Then, cells were incubated with secondary antibody (HRP-conjugated goat anti-mouse IgG, Cell Signaling) for 1 h at 37 °C. Cells were developed with TrueBlue Peroxidase Substrate (KPL). Plates were read on a CTL-ImmunoSpot S6 Micro analyzer.

ZIKV = ZIKV neutralisation by mutant, enantiomer and variant peptides (strain not stated); type: cell-based, Zika virus
Procedure: To further characterize Yodha peptide, we generated alanine-scanning mutants of the peptide, which removes the side chain, but maintains peptide conformation, allowing for the assessment of the significance of each amino acid within the larger structure (Fig. 4A). Each of 23 mutated peptides was tested for its (a) ability to neutralize ZIKV (Fig. 4B) and (b) toxicity against human RBC, if any (Fig. 4C).
So next, we sought to determine how common this peptide or its analogs are in host defense peptides isolated from elsewhere in the world. […] We then determined the extent to which any of these variant peptides can neutralize ZIKV. […] We also generated a series of mutant Yodha peptides, including one which lacks the C terminal DDQERC, a short 12 peptide fragment that lacks the EEERGA from variant #12, and a S1P peptide that replace S1-P in the full-length Yodha (Fig. 5D) and tested their activity against ZIKV (Fig. 5D).
as §1

PMLLLFFLGTISLSLCQ [truncated Yodha variant 12]
efficiency against DENV3 compared to the full length Yodha peptide (DENV3; dose escalation): very efficient
IC50 (DENV3; read-out: IC50 for DENV3): 30 µM
activity of truncated and S1P mutant peptides against ZIKV versus WT Yodha (ZIKV): significantly improved activity

PMLLLFFLGTISLSLCQEEERGA [variant #12, brevinin-2KK2, naturally occurring variant of Yodha from Rana kukunoris]
increased effect against ZIKV than Yodha peptide (ZIKV): 1.6 fold

PMLLLFFLGTISLSLCQEERGA [variant 21, naturally occurring variant of Yodha isolated from the frog I. temporalis]
virucidal activity of naturally occurring variants against ZIKV (ZIKV): exhibited activity

— PMC7804942, “The amphibian peptide Yodha is virucidal for Zika and dengue viruses” (Scientific Reports, 2021)
